Results taken from patent US20180263993A1, “METHOD FOR PREVENTING AND/OR TREATING CHRONIC TRAUMATIC ENCEPHALOPATHY-IV” (Eustralis Pharmaceuticals Limited (trading as Pressura …, priority 2013, published 2018).

System: tau phosphorylation
Experiment: Tau phosphorylation after concussive injury in the rat (phosphorylated tau immunohistology)
Format: in vivo
Details: rat concussion model; 1 mg/kg intravenously at 30 min after induction of injury; assessed 3 days after the concussive event; compared with injured and non-injured animals
Text: Note that concussive injury in the rat causes extensive tau phosphorylation (B) by 3 days after the concussive event compared to non-injured animals (A).
Having established that hyperphosphorylated tau accumulates perivascularly following concussive injury, we used an animal model of concussion to investigate whether concussion causes perivascular release of substance P. We developed a rodent model of concussion to replicate the concussive event (Donkin et al., 2004, 7th International Neurotrauma Symposium, pp 75-78, Medimond Publishers, Bologna, Italy) and subsequently determined whether substance P was released after such an event. There was a clear increase in brain perivascular substance P immunoreactivity after the concussive event (FIG. 2).
Having shown that mechanical injury causes release of substance P after concussive injury, we then investigated whether a compound of formula (I) reduces tau hyperphosphorlation after concussive injury. […] Note that concussive injury in the rat causes extensive tau phosphorylation (B) by 3 days after the concussive event compared to non-injured animals (A). […] Thus, administration of a compound of formula (I) prevents tau hyperphosphorylation and thus prevents the development of CTE.

## Cc1ccccc1-c1cc(N2CCOCC2)ncc1N(C)C(=O)C(C)(C)c1cc(C(F)(F)F)cc(C(F)(F)F)c1 [compound of formula (I), 2-[3,5-bis(trifluoromethyl)phenyl]-N,2-dimethyl-N-[4-(2-methylphenyl)-6-morpholin-4-ylpyridin-3-yl]propanamide]
  effect on tau phosphorylation after concussive injury: almost complete inhibition of tau phosphorylation
